Assay results published in patent publication US9315499B2, “Cytomegalovirus inhibitor compounds” (Boehringer Ingelheim International GmbH, priority 2012, dated 2016).

Target: HCMV polymerase (UL54) (Human cytomegalovirus (strain AD169) (HHV-5) (Human herpesvirus 5), UniProt P08546)
Experiment: biochemical
Conditions: LANCE TR-FRET, purified recombinant GST-UL54; read-out: Example C (IC50 nM)
Protocol: HCMV Polymerase LANCE TR-FRET Assay
This non-radiometric assay determines the enzymatic activity of purified recombinant HCMV polymerase (UL54) using a Digoxigenin-labeled oligonucleotide priming a heteropolymeric template. The enzymatic activity is determined by incorporating Biotin-dUTP in the nascent complementary strand. The signal is generated by Fluorescence Resonance Energy Transfer from the donor (Anti-Digoxigenin-Europium Chelate binding with the primer) to the acceptor Streptavidin-AlloPhycoCyanin (SA-APC) binding to the biotin of the labeled nucleotides incorporated in proximity.
Serial dilutions of the DMSO stock compound solution are performed using DMSO in columns 2-11 and 14-23. DMSO alone is present in columns 1, 12, 13 and 24. Three μL of the DMSO serial dilutions is transferred and diluted using 21 μL of compound dilution buffer (10 mM Hepes pH 7.5, 25 mM KCl, 5 mM MgCl2, 1 mM TCEP) to obtain 12.5% DMSO. 4 μL per well of the 12.5% DMSO serial dilution compound solution is added to the assay plate. The plate is centrifuged at 200×g for 30 sec. […]
To perform the assay, 3 μL of the enzyme solution is added to columns 2-12 and 14-24. […] The signal is read on the Envision plate reader (Perkin-Elmer) or equivalent.

| Compound | IC50 [nM] |
| --- | --- |
| Nc1c(Br)cnc2c1cc(C(=O)NCc1ccc(Cl)cc1)c(=O)n2CC(=O)N1CCC(CO)C1 (centres unmarked) [Compound 6022] | 83 |
| O=C(NCc1ccc(Cl)cc1)c1cc2cccnc2n(CC(=O)N2CCC(C(=O)O)C2)c1=O (centres unmarked) [Compound 1029] | 6200 |
